In test [1] the target is Phospho-KIT (Tyr719) in GIST48 cells (Homo sapiens, UniProt P10721). As to the kind of experiment: GIST48 KIT Western Blot. In kind it is cell-based. The note with it: 4 hours, read-out: pKIT suppression by western blot analysi GIST48.
The subject of another test is GIST430 cells. Briefly: GIST 430 Cell Proliferation Assay. Type of test: cell-based. The note with it: Homo sapiens, resazurin, 115 hours + 5 hours. As to the method: (§1) GIST48, GIST430, and GIST882 cells were obtained from J. Fletcher (Brigham and Women's Hospital, Boston, Mass.). GIST T1 cells were obtained from B. Rubin (Cleveland Clinic, Cleveland, Ohio) and Professor Takahiro Taguchi (Kochi Medical School, Nankoku, Kochi, Japan). Briefly, GIST48 and GIST 882 cells were grown in RPMI 1640 medium supplemented with 15% characterized fetal bovine serum (Invitrogen, Carlsbad, Calif.), 1 unit/mL penicillin G, 1 μg/ml streptomycin, and 0.29 mg/mL L-glutamine at 37° C., 5% CO2, and 95% humidity. GIST430 cells were grown in Ham's F10 medium supplemented with 15% characterized fetal bovine serum (Invitrogen, Carlsbad, Calif.), 30 mg/L bovine pituitary extract (BD Biosciences, San Jose, Calif.), 0.5% Mito+ serum extender (BD Biosciences, San Jose, Calif.), 1 unit/mL penicillin G, 1 μg/ml streptomycin, and 0.29 mg/mL L-glutamine at 37° C., 5% CO2, 95% humidity. GIST T1 cells were grown in DMEM medium supplemented with 10% characterized fetal bovine serum (Invitrogen, Carlsbad, Calif.), 1 unit/mL penicillin G, 1 ng/ml streptomycin, and 0.29 mg/mL L-glutamine at 37° C., 5% CO2, and 95% humidity.
A serial dilution of test compound was dispensed into a 384-well black clear bottom plate (Corning, Corning, N.Y.). Two thousand five-hundred cells were added per well in 50 μL complete growth medium. Plates were incubated for 115 hours at 37° C., 5% CO2, 95% humidity. At the end of the incubation period 10 μL of a 440 μM solution of resazurin (Sigma, St. Louis, Mo.) in PBS was added to each well and incubated for an additional 5 hours at 37° C., 5% CO2, 95% humidity. Plates were read on a Synergy2 reader (Biotek, Winooski, Vt.) using an excitation of 540 nm and an emission of 600 nm.
For orientation: The colour change of resazurin is a common sign of viable cells or microbes.

Test [2] concerns the target Phospho-KIT (Tyr719) in GIST430 cells (Homo sapiens, UniProt P10721). As to the kind of experiment: GIST430 KIT Western Blot. Type of test: cell-based. The note with it: 4 hours, read-out: pKIT suppression by western blot analysi GIST430. In general terms: Immunoblotting shows a protein as a band on a membrane.
Test [3] addresses T1, c-KIT D816V kinase (Seq ID no. 4) (Homo sapiens, UniProt P10721, D816V).
T1 construct: D816V c-KIT (residues T544-V976 with N-terminal GST fusion, 16 nM); purchased deCODE Biostructures
Briefly: c-KIT D816V kinase Assay. Type of test: biochemical. The note with it: enzymatic assay, ATP 200 uM. As to the method:
In this assay, the oxidation of NADH (measured by decrease in absorbance at 340 nm) was continuously monitored spectrophotometrically. […] The inhibition reaction was started by mixing serial diluted test compound with the above reaction mixture. The absorption at 340 nm was monitored continuously for 5 hours at 30° C. on Synergy 2 plate reader (BioTech).
The protein construct was prepared by deCODE Biostructures using procedures known in the art. The construct contains residues T544-V976 of cKit, an N-terminal tag, a GST-fusion sequence and a TEV cleavage site. This construct is identical to Seq ID no. 1 except for the D816V mutation.

The next test deals with GIST T1 cells. Briefly: GIST T1 Cell Proliferation Assay. In kind it is cell-based. The note with it: Homo sapiens, GISTT1, 72 h, resazurin, 68 hours + 4 hours. As to the method: as §1
A serial dilution of test compound was dispensed into a 384-well black clear bottom plate (Corning, Corning, N.Y.). […] Plates were read on a Synergy2 reader (Biotek, Winooski, Vt.) using an excitation of 540 nm and an emission of 600 nm.

Test [4] concerns the target T2, c-KIT T670I kinase (Seq ID no. 6) (Homo sapiens, UniProt P10721, T670I).
T2 construct: GST (N); TEV cleavage site (N); purchased deCODE Biostructures
As to the kind of experiment: c-KIT T670I Kinase Assay. Type of test: biochemical. The note with it: enzymatic assay, ATP 200 uM. As to the method: (§2) In this assay, the oxidation of NADH (measured by decrease in absorbance at 340 nm) was continuously monitored spectrophotometrically. […] The inhibition reaction was started by mixing serial diluted test compound with the above reaction mixture. The absorption at 340 nm was monitored continuously for 5 hours at 30° C. on Synergy 2 plate reader (BioTech). […] The protein construct was prepared by deCODE Biostructures using procedures known in the art. The construct contains […] of cKit, an N-terminal tag, a GST-fusion sequence and a TEV cleavage site. This construct is identical to Seq ID no.

Test [5] addresses T3, c-KIT V654A kinase (Seq ID no. 2) (Homo sapiens, UniProt P10721, V654A).
T3 construct: V654A c-Kit (residues T544-V976 with N-terminal GST fusion, 47 nM); purchased deCODE Biostructures
Briefly: c-KIT V654A Kinase Assay. The note with it: enzymatic assay, ATP 200 μM. Type of test: biochemical. As to the method: In this assay, the oxidation of NADH (measured by decrease in absorbance at 340 nm) was continuously monitored spectrophotometrically. […] The inhibition reaction was started by mixing serial diluted test compound with the above reaction mixture. The absorption at 340 nm was monitored continuously for 6 hours at 30° C. on Synergy 2 plate reader (BioTech).
The protein construct was prepared by deCODE Biostructures using procedures known in the art. The construct contains residues T544-V976 of cKit, an N-terminal tag, a GST-fusion sequence and a TEV cleavage site. This construct is identical to Seq ID no.

Test [6] deals with T4, c-KIT kinase (Seq ID no. 1) (Homo sapiens, UniProt P10721).
T4 construct: GST (N); TEV cleavage site (N); purchased deCODE Biostructures
T4 sequence (P10721 with tags, fused parts or gaps): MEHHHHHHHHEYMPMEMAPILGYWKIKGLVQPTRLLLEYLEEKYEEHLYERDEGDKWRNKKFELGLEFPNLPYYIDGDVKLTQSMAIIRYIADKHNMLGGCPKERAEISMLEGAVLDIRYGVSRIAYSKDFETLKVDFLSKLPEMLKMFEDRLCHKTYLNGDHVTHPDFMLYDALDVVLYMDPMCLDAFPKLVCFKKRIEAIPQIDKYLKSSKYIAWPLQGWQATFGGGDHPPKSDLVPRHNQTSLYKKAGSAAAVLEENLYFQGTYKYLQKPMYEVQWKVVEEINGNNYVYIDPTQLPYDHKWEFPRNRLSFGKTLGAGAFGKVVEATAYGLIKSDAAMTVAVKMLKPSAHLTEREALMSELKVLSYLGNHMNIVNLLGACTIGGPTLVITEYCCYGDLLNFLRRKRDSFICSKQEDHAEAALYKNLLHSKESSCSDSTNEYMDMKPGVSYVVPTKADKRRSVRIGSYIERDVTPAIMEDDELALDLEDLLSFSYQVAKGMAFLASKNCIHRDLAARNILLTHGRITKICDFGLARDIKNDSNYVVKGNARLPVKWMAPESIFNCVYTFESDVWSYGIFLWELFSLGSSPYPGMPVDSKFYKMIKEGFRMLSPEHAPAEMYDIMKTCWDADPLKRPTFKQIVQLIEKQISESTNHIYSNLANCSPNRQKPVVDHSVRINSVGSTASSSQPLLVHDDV
Briefly: c-KIT Kinase Assay (pyruvate kinase/lactate dehydrogenase coupled). In kind it is biochemical. The note with it: enzymatic assay, ATP 200 μM; read-out: KIT (wt). As to the method: In this assay, the oxidation of NADH (measured by decrease in absorbance at 340 nm) was continuously monitored spectrophotometrically. […] The absorption at 340 nm was monitored continuously for 2 hours at 30° C. on Synergy 2 (BioTeK). The reaction rate was calculated using the 0 to 1 h time frame. Percent inhibition was obtained by comparison of reaction rate with that of a control (i.e. with no test compound). IC50 values were calculated from a series of percent inhibition values determined at a range of inhibitor concentrations using software routines as implemented in the GraphPad Prism software package. The protein construct was prepared by deCODE Biostructures using procedures known in the art. The construct contains […] of cKit, an N-terminal tag, a GST-fusion sequence and a TEV cleavage site.

The target in test [7] is T5, c-KIT D816H kinase (Seq ID no. 3) (Homo sapiens, UniProt P10721, D816H).
T5 construct: GST (N); TEV cleavage site (N); purchased deCODE Biostructures
T5 sequence (P10721 544-976 D816H): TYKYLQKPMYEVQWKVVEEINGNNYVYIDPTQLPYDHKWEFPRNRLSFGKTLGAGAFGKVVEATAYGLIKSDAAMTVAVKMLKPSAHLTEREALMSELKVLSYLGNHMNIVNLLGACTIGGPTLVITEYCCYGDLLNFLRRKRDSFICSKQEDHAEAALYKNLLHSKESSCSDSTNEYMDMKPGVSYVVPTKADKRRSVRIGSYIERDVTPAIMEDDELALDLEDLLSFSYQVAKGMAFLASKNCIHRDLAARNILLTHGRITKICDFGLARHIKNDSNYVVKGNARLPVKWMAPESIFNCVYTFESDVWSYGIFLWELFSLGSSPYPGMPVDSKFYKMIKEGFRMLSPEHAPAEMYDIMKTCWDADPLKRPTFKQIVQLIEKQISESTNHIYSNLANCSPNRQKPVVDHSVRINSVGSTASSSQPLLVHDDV
Briefly: c-KIT D816H Kinase Assay. Type of test: biochemical. The note with it: enzymatic assay, ATP 200 μM. As to the method: as §2, with “6” for “5”, “no. 1 except for the D816H mutation.” for “no.”

Some results are limits rather than exact numbers.

Phospho-KIT (Tyr719) in GIST430 cells, sequence (P10721 with tags, fused parts or gaps DEL560-576/V654A, form open): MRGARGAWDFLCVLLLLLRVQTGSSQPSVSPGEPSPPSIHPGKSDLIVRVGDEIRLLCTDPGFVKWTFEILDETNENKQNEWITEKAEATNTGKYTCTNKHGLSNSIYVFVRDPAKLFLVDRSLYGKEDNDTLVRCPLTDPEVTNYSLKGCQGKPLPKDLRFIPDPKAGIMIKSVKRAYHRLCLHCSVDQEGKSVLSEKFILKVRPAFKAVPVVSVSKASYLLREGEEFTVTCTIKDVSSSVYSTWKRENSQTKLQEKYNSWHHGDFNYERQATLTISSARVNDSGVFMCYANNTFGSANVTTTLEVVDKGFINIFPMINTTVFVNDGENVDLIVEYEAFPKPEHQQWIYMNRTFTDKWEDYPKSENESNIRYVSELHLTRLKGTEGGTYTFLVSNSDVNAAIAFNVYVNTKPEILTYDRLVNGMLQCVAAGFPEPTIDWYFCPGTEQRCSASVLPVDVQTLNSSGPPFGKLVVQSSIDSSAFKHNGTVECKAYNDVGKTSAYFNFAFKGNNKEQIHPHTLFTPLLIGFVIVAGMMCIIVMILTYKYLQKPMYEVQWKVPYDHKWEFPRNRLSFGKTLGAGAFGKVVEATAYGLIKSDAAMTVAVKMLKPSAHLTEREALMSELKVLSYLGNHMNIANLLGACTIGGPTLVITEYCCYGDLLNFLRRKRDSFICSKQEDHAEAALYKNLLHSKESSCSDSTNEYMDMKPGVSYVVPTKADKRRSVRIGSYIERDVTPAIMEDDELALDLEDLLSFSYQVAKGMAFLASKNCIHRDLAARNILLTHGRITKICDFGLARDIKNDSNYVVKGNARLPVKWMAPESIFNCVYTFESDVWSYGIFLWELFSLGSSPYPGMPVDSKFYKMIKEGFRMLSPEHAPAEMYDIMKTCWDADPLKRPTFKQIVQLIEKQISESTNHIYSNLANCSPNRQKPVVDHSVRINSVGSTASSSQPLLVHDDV
Phospho-KIT (Tyr719) in GIST48 cells, sequence (P10721 whole entry V560D/D820A, form open): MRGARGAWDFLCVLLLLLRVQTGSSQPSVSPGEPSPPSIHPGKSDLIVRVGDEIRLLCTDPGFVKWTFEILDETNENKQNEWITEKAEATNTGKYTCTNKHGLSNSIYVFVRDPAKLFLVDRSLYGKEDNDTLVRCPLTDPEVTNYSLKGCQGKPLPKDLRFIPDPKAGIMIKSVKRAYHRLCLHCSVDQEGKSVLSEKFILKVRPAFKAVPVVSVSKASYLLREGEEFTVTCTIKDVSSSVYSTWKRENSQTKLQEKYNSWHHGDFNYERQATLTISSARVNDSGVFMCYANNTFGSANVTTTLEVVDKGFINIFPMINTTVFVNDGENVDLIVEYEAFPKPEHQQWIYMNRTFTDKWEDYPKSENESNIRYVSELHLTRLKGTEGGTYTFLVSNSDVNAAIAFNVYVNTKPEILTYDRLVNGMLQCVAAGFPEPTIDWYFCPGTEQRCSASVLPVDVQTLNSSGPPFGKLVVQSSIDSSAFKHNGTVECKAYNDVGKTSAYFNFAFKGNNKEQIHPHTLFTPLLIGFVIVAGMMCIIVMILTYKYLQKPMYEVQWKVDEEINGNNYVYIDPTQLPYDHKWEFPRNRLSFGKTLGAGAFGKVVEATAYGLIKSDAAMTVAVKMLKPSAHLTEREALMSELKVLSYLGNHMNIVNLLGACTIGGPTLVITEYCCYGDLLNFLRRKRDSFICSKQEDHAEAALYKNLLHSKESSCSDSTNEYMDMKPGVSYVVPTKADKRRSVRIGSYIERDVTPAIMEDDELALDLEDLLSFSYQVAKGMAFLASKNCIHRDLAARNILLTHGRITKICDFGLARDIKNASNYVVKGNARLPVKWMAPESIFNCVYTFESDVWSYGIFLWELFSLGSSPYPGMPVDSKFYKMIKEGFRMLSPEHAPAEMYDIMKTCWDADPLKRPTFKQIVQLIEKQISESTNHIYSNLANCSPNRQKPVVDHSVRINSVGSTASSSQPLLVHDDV
T1 sequence (P10721 544-976 D816V): as the sequence (P10721 544-976 D816H) above, with H273V counted along it
T3 sequence (P10721 544-976 V654A): as the sequence (P10721 544-976 D816H) above, with V111A, H273D counted along it
T2 sequence (P10721 544-976 T670I): as the sequence (P10721 544-976 D816H) above, with T127I, H273D counted along it

In the case of `CCn1c(=O)c(-c2cc(NC(=O)Nc3ccccc3)c(F)cc2Cl)cc2cnc(NC)cc21` [Example 3, 1-(4-chloro-5-(1-ethyl-7-(methylamino)-2-oxo-1,2-dihydro-1,6-naphthyridin-3-yl)-2-fluorophenyl)-3-phenylurea], the IC50 in [1] was in the range of 100 to 1000 nM; with GIST430 cells it was 10 to 100 nM; in test [2] it was 10 to 100 nM.
Take `CCn1c(=O)c(-c2cc(NC(=O)Nc3ccccc3F)c(F)cc2C)cc2cnc(NC)cc21` [Example 38, 1-(5-(1-ethyl-7-(methylamino)-2-oxo-1,2-dihydro-1,6-naphthyridin-3-yl)-2-fluoro-4-methylphenyl)-3-(2-fluorophenyl)urea]: the IC50 in [1] is greater than 1000 nM; in the test on GIST430 cells, 10 to 100 nM; in test [2], 10 to 100 nM.
Turning to `CCn1c(=O)c(-c2cc(NC(=O)Nc3ccccc3)c(F)cc2C)cc2cnc(NC)cc21` [Example 23, 1-(5-(1-ethyl-7-(methylamino)-2-oxo-1,2-dihydro-1,6-naphthyridin-3-yl)-2-fluoro-4-methylphenyl)-3-phenylurea], the results for the IC50 (in test [1]; in the test on GIST430 cells; in [2]) were 100 to 1000 nM, 10 to 100 nM and 10 to 100 nM, respectively.
For the compound `CCn1c(=O)c(-c2cc(NC(=O)Nc3ccccc3)c(F)cc2Cl)cc2cnc(NCCCN3CCOCC3)cc21` [Example 92, 1-(4-chloro-5-(1-ethyl-7-((3-morpholinopropyl)amino)-2-oxo-1,2-dihydro-1,6-naphthyridin-3-yl)-2-fluorophenyl)-3-phenylurea], the IC50 in test [3] is 10 to 100 nM; in the test on GIST T1 cells, no more than 10 nM; in test [4] it was 10 to 100 nM; in [5] it was less than 10 nM; in test [6], less than 10 nM; in test [7], 10 to 100 nM.

The values above are taken from patent publication US8940756B2, “Dihydronaphthyridines and related compounds useful as kinase inhibitors for the treatment of proliferative diseases” (Deciphera Pharmaceuticals, Inc., priority 2012, dated 2015).
